From PubChem BioAssay AID2060335 (Molecular Pharmacology Branch, DTP, NCI, 2025)
“And” between values parts separate entries of the source, which are not always exact repeats. Identical values can stand only once.

Test system: DU-145 multicell spheroids with HUVEC/MSC, viability
Assay: Anticancer human tumor DU-145 cell line growth inhibition [IpAb];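 further: spheroids exposed to agents for seven days before measurement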;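 on viability, T/C: percent of DMSO vehicle control viability so 100% = untreated level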
Settings: for viability, T/C: stronger effect = lower value
From the text: Combinatorial screen of targeted agents with ipatasertib and abemaciclib in multi-cell type tumor spheroids
A high-throughput screen of multi-cell type tumor spheroids was designed to identify active combinations of targeted small molecules and ipatasertib or abemaciclib. Complex spheroids include a stromal component modeled by human endothelial cells (HUVEC) and fibroblasts modeled by human mesenchymal stem cells (MSCs). The concentration ranges selected for each drug and investigational agent were based upon clinically achievable concentrations if the clinical Cmax of the agent was known.
Compounds. The drugs and investigational agents: ipatasertib (NSC767898), abemaciclib(NSC768073), selumetinib (NSC741078), trametinib (758246), adavosertib (NSC754352), everolimus (NSC733504), sapanisertib (NSC764658), vemurafenib (NSC761431), venetoclax (NSC766270), copanlisib (NSC809693), apelisib (NSC765974), palbociblib (NSC758247), vemurafenib (NSC761431), dabrafenib (NSC764134), ravoxertinib (NSC781343), BMS-387032 (NSC767048), sotorasib (NSC818433), talazoparib (NSC767125) and afursertib (NSC778305), were obtained from the National Cancer Institute (NCI) Developmental Therapeutics Program Chemical Repository. The FDA-approved anticancer drug set is available from the NCI Developmental Therapeutics Program. […] The stock solutions were prepared in dimethyl sulfoxide (DMSO, Sigma-Aldrich, St. Louis, MO, cat. D2650) at 800-fold the tested concentration and stored at -70 degrees C prior to their use. All drugs and investigational agents were tested over a range starting from a high concentration at or near the clinical Cmax and decreasing in half-log increments. If the clinical Cmax for an agent had not been determined, the highest concentration tested was 10 microM.
NCI60 Cell Culture. NCI60 cell lines were obtained from the NCI Developmental Therapeutics Program Tumor Repository. For each lot of cells, the Repository performed Applied Biosystems AmpFLSTR Identifiler testing with PCR amplification to confirm consistency with the published Identifier STR profile for each cell line. Cells were kept in continuous culture for no more than 20 passages. The optimal seeding densities for each of the cell lines at each time point assessed were determined prior to performing the concentration response studies. Briefly, the NCI60 human tumor lines were grown as monolayers in RPMI 1640 medium supplemented with 10% FBS and 2 mmol/L L-glutamine.
An additional 9 lines were from the NCI60 cell line panel including MDA-MB-231 breast carcinoma, MDA-MB-468 breast carcinoma, MCF7 breast carcinoma, Hs578T breast carcinoma, MALME-3M melanoma, SK-MEL-2 melanoma, SK-OV-3 ovarian carcinoma, DU-145 prostate carcinoma, PC-3 prostate carcinoma, all cell lines along with major genetic alterations are listed on Table 2. Pooled donor human umbilical vein endothelial cells (HUVEC, Lonza, cat. CC-2519) and human mesenchymal stem cells (hMSC, Lonza, cat. PT-2501) were purchased from Lonza (Walkersville, MD).
PDMR cell lines were grown in complete medium (DC medium): Dulbecco's modified Eagle's medium (DMEM)/F12 supplemented with 5% fetal bovine serum (FBS), 2 mM L-glutamine, 100 U/mL penicillin and 100 µg/ml streptomycin, 0.4 µg/ml hydrocortisone, 10 ng/ml epidermal growth factor (EGF) recombinant human protein, 24 µg/mL adenine, and 0.1 mg/mL primocin. During culture from frozen stock vials, PDMR cells were cultured in the same medium containing 10 µM Y-27632 (see Table 3). The PDCs were cultured in complete DMEM/F12 media without 10 microM Y-27632 dihydrochloride for at least two passages prior to the screen. The pooled donor HUVEC and hMSC were cultured in endothelial cell growth medium 2 (PromoCell, Heidelberg, Germany, cat. C-22011) and mesenchymal stem cell growth medium 2 (PromoCell, cat. C-28009), respectively. For all experiments, HUVEC and hMSC were used at passages </=5.
[…]

In the case of CC(=O)c1c(C)c2cnc(Nc3ccc(N4CCNCC4)cn3)nc2n(C2CCCC2)c1=O, the viability, T/C (compound 0.000949 µM) is reported as 104% and 89.4%, the viability, T/C (compound 0.003 µM) is reported as 102% and 98.4% and the viability, T/C (compound 0.00949 µM) is reported as 99.7% and 96.5%. For the same compound, the viability, T/C (compound 0.03 µM) was 103% and 93.6%, the viability, T/C (compound 0.0949 µM) was 99.4% and 97.1% and the viability, T/C (compound 0.3 µM) was 90.7% and 80.9%. The IC50 (curve of compound) was over 0.3 µM.

CCCS(=O)(=O)Nc1ccc(F)c(C(=O)c2c[nH]c3ncc(-c4ccc(Cl)cc4)cc23)c1F was tested, and the viability, T/C (compound 0.0316 µM) was 112% and 110%, the viability, T/C (compound 0.1 µM) was 108% and 114% and the viability, T/C (compound 0.316 µM) was 110% and 116%. The viability, T/C (compound 1 µM) was 115% and 118%, the viability, T/C (compound 3.16 µM) was 109% and 113% and the viability, T/C (compound 10 µM) was 79.7% and 82.9%. The IC50 (curve of compound) was over 10 µM.

CCCS(=O)(=O)Nc1ccc(F)c(C(=O)c2c[nH]c3ncc(-c4ccc(Cl)cc4)cc23)c1F + CCN1CCN(Cc2ccc(Nc3ncc(F)c(-c4cc(F)c5nc(C)n(C(C)C)c5c4)n3)nc2)CC1 showed an IC50 (curve of first compound, second compound 0.01 µM) of over 10 µM, an IC50 (curve of first compound, second compound 0.0316 µM) of over 10 µM and an IC50 (curve of first compound, second compound 0.1 µM) of over 10 µM. The IC50 (curve of first compound, second compound 0.316 µM) was over 10 µM, the IC50 (curve of first compound, second compound 1 µM) was over 10 µM and the viability, T/C (second compound 0.01 µM, first compound 0.0316 µM) was 107%. The viability, T/C (second compound 0.01 µM, first compound 0.1 µM) was 107%, the viability, T/C (second compound 0.01 µM, first compound 0.316 µM) was 102% and the viability, T/C (second compound 0.01 µM, first compound 1 µM) was 115%. For the same compound, the viability, T/C (second compound 0.01 µM, first compound 3.16 µM) was 106%, the viability, T/C (second compound 0.01 µM, first compound 10 µM) was 79.8% and the viability, T/C (second compound 0.0316 µM, first compound 0.0316 µM) was 101%. The viability, T/C (second compound 0.0316 µM, first compound 0.1 µM) was 107%, the viability, T/C (second compound 0.0316 µM, first compound 0.316 µM) was 105% and the viability, T/C (second compound 0.0316 µM, first compound 1 µM) was 115%. The viability, T/C (second compound 0.0316 µM, first compound 3.16 µM) was 106%, the viability, T/C (second compound 0.0316 µM, first compound 10 µM) was 72.4% and the viability, T/C (second compound 0.1 µM, first compound 0.0316 µM) was 95.8%. The viability, T/C (second compound 0.1 µM, first compound 0.1 µM) was 95.5%, the viability, T/C (second compound 0.1 µM, first compound 0.316 µM) was 99.3% and the viability, T/C (second compound 0.1 µM, first compound 1 µM) was 107%. It also gave a viability, T/C (second compound 0.1 µM, first compound 3.16 µM) of 98.3%, a viability, T/C (second compound 0.1 µM, first compound 10 µM) of 65.9% and a viability, T/C (second compound 0.316 µM, first compound 0.0316 µM) of 80.3%. For the same compound, the viability, T/C (second compound 0.316 µM, first compound 0.1 µM) was 84.9%, the viability, T/C (second compound 0.316 µM, first compound 0.316 µM) was 87.1% and the viability, T/C (second compound 0.316 µM, first compound 1 µM) was 88.6%. It also gave a viability, T/C (second compound 0.316 µM, first compound 3.16 µM) of 89.4%, a viability, T/C (second compound 0.316 µM, first compound 10 µM) of 52.4% and a viability, T/C (second compound 1 µM, first compound 0.0316 µM) of 70.1%. For the same compound, the viability, T/C (second compound 1 µM, first compound 0.1 µM) was 66.9%, the viability, T/C (second compound 1 µM, first compound 0.316 µM) was 67% and the viability, T/C (second compound 1 µM, first compound 1 µM) was 64.6%. It also gave a viability, T/C (second compound 1 µM, first compound 3.16 µM) of 69.9% and a viability, T/C (second compound 1 µM, first compound 10 µM) of 54.8%.

CC(C)NCC(C(=O)N1CCN(c2ncnc3c2C(C)CC3O)CC1)c1ccc(Cl)cc1 (stereo not given) was tested, and the viability, T/C (compound 0.1 µM) was 81.1% [middle of 13 runs], the viability, T/C (compound 0.316 µM) was 53.8% [middle of 13 runs] and the viability, T/C (compound 1 µM) was 30.9% [middle of 13 runs]. For the same compound, the viability, T/C (compound 3.16 µM) was 21.7% [middle of 13 runs], the viability, T/C (compound 10 µM) was 17.5% [middle of 13 runs] and the IC50 (compound alone, run of 06/01/2021) was 381 nM [middle of 13 runs].
